Source: US10047105B2, “Gyrase inhibitors” (Merck Sharp & Dohme Corp., priority 2009, dated 2018)
≈ marks a conversion by molar mass, not a printed value.

Tests used:
[1] = test system: S. pneumoniae ATCC 51916; assay: MIC, S. pneumoniae; assay type: cell-based
[2] = test system: S. aureus ATCC 13709; assay: MIC, antibacterial potency, S. aureus; assay type: cell-based
[3] = S. pneumoniae (Spn52), in µg/mL

MIC Spn52 [1, 3]	MIC, SA ([2]; S. aureus (SA), in µg/mL)	SMILES	MIC Spn52 ([1]; S. pneumoniae) [µg/mL]	MIC, SA ([2]; S. aureus) [µg/mL]
		CCc1[nH]c2nc(Sc3cnc4nccnc4c3)nc(N3CC(C)(CN)C3)c2c1Cl.O=C(O)C(F)(F)F.O=C(O)C(F)(F)F [700,607]	16	8
		CCc1[nH]c2nc(Sc3cnc4nccnc4c3)nc(N3CCN(CCO)CC3)c2c1Cl.O=C(O)C(F)(F)F [700,445]	16	16
		CCc1[nH]c2nc(Sc3cnc4nccnc4c3)nc(N3CC(Oc4ccc(OC)cc4)C3)c2c1Cl.O=C(O)C(F)(F)F [700,668]	> 64	8
		CCc1[nH]c2nc(Sc3cnc4nccnc4c3)nc(N3CC[C@@H](N(C)C)C3)c2c1Cl [700,430]	32 (≈ 70.3 µM)	32 (≈ 70.3 µM)
		CCc1[nH]c2nc(Sc3cnc4nccnc4c3)nc(N3CCC(N)CC3)c2c1Cl [700,541]	4 (≈ 9.07 µM)	4 (≈ 9.07 µM)
		CCc1[nH]c2nc(Sc3cnc4nccnc4c3)nc(N3CC(C(N)=O)C3)c2c1Cl.O=C(O)C(F)(F)F [700,670]	16	16
		CCCn1c(=O)cc(Sc2nc(N3CC(O)C3)c3c(Br)c(CC)[nH]c3n2)[nH]c1=O [700,414]	1 (≈ 2.08 µM)	≤ 0.5
		CCc1[nH]c2nc(Oc3cccnc3)nc(N3CCN(c4cnccn4)CC3)c2c1Cl.O=C(O)C(F)(F)F [700,465]	32	8
>64	>64	CCc1[nH]c2nc(Sc3ccc4c(N)nc(CN5CCNCC5)nc4c3)nc(N3CC[C@@H](N)C3)c2c1Cl [700,847]		
		CCOC(=O)c1nc2cc(Sc3nc(N4CC(O)C4)c4c(Br)c(CC)[nH]c4n3)cnc2n(C)c1=O [700,475]	> 64	> 64
		CCc1[nH]c2nc(Sc3cnc4nccnc4c3)nc(N3CC(CNC(=O)CCN4CCCCC4)C3)c2c1Cl [700,518]	4 (≈ 7.07 µM)	4 (≈ 7.07 µM)
		CCc1[nH]c2nc(Sc3cnc4nccnc4c3)nc(N3CC[C@H](O)C3)c2c1Cl [700,427]	1 (≈ 2.34 µM)	≤ 0.5
4	8	CCc1[nH]c2nc(Sc3ccc4nccnc4c3)nc(N3CCC4(CCNCC4)C3)c2c1Cl [700,901]		
		CCc1[nH]c2nc(Sc3cnc4nccnc4c3)nc(N3CC(CN)C3)c2c1Cl [700,463]	4 (≈ 9.37 µM)	2 (≈ 4.68 µM)
		CCOc1nc(Sc2nc(OC)c3cccnc3n2)nc2[nH]c(CC)c(Cl)c12 [700,339]	> 64	> 64
		CCc1[nH]c2nc(Sc3cnc4nccnc4c3)nc(N3CCC(NC)C3)c2c1Cl.O=C(O)C(F)(F)F (stereo not shown) [700,567]	4	7
		O=C(O)C(F)(F)F.OCCc1[nH]c2nc(Oc3cccnc3)nc(Oc3cncnc3)c2c1Cl [700,577]	> 64	> 64
		CCOc1nc(Sc2ncc3cccnc3n2)nc2[nH]c(CC)c(Cl)c12 [700,341]	> 64	> 64
>64	>64	CCc1[nH]c2nc(Oc3cccc(C#N)c3)nc(/C=C\c3cccc(OC)c3)c2c1Cl [700,892]		
		CCc1[nH]c2nc(Sc3cnc4nccnc4c3)nc(N3CC(N)C3)c2c1Br [700,469]	2 (≈ 4.37 µM)	1 (≈ 2.19 µM)

MIC Spn52 [1, 3]	MIC, SA ([2]; S. aureus (SA), in µg/mL)	SMILES	MIC Spn52 ([1]; S. pneumoniae) [µg/mL]	MIC, SA ([2]; S. aureus) [µg/mL]
		CCc1[nH]c2nc(Oc3cnc4c(cnn4C)c3)nc(Oc3cccnc3)c2c1Cl [700,615]	4 (≈ 9.48 µM)	≤ 0.5
		CCOc1nc(Nc2cnc3c(cnn3C(C)C)c2)nc2[nH]c(CC)c(Cl)c12.O=C(O)C(F)(F)F [700,406]	16	2
		CCc1[nH]c2nc(Sc3nc(C(=O)O)cs3)nc(N3CC(O)C3)c2c1Cl [700,340]	> 64	> 64
		CCc1[nH]c2nc(Sc3cnc4nccnc4c3)nc(N3CC(C)(N)C3)c2c1Cl.O=C(O)C(F)(F)F.O=C(O)C(F)(F)F [700,630]	8	4
4	<=0.5	CCc1[nH]c2nc(Sc3cnc4nccnc4c3)nc(N3CCC(c4cccnc4)C3)c2c1Cl (stereo not shown) [700,851]		
		CCc1[nH]c2nc(Sc3cnc4nccnc4c3)nc(N3CC(N4CCNCC4)C3)c2c1Cl.O=C(O)C(F)(F)F.O=C(O)C(F)(F)F [700,672]	8	8
		CCc1[nH]c2nc(Sc3cnc4nccnc4c3)nc(N3CC(NC(=O)c4cnc[nH]4)C3)c2c1Cl [700,449]	1 (≈ 1.97 µM)	1 (≈ 1.97 µM)
		CCc1[nH]c2nc(Sc3cnc4nccnc4c3)nc(N3CC4[C@H](C3)[C@@]4(N)C(N)=O)c2c1Cl.O=C(O)C(F)(F)F.O=C(O)C(F)(F)F (stereo partly shown) [700,781]	1	≤ 0.5
		CCc1[nH]c2nc(Sc3nc(C(=O)O)cs3)nc(N(C)C)c2c1Cl.O=C(O)C(F)(F)F [700,407]	> 64	> 64
1	<=0.5	CCc1[nH]c2nc(Sc3cnc4cccnc4c3)nc(N3CC(Cc4cncnc4)C3)c2c1Cl [700,867]		
		CCc1[nH]c2nc(Sc3cnc4c(C(C)C)nc(N)nc4c3)nc(OCCn3ccnc3)c2c1Cl.O=C(O)C(F)(F)F [700,507]	> 64	> 64
		CCc1[nH]c2nc(Oc3cncc(C#N)c3)nc(Oc3cncc(C#N)c3)c2c1Cl.O=C(O)C(F)(F)F [700,723]	2	≤ 0.5
8	4	CCc1[nH]c2nc(Sc3ccc4cc5c(nc4c3)CCNC5)nc(N3CC[C@@H](N)C3)c2c1Cl [700,841]		
		CCc1[nH]c2nc(Sc3cc(=O)n(C)c(=O)[nH]3)nc(N3CC(O)C3)c2c1Br [700,433]	1 (≈ 2.21 µM)	≤ 0.5
8	8	CCc1[nH]c2nc(Sc3cc(OC)c4c(N)nc(C)nc4c3)nc(N3CC[C@@H](N)C3)c2c1Cl [700,863]		
>64	>64	CCc1[nH]c2nc(Sc3cnc4nccnc4c3)nc(N3C[C@H](N)C[C@@H]3CO)c2c1Cl [700,868]		
		CCc1[nH]c2nc(Sc3cnc4nccnc4c3)nc(N3CC(CNS(C)(=O)=O)C3)c2c1Br [700,468]	1 (≈ 1.82 µM)	≤ 0.5
<=0.5	<=0.5	CCc1[nH]c2nc(Oc3cncc(C#N)c3)nc(Oc3cncnc3)c2c1Br [700,899]		
		CCc1[nH]c2nc(Sc3cnc4nccnc4c3)nc(N(C)Cc3cccnc3)c2c1Cl.O=C(O)C(F)(F)F [700,546]	16	4
2	<=0.5	CCc1[nH]c2nc(Sc3ccc4ccc(C(=O)O)nc4c3)nc(N3CC(CNC(=O)c4cn(C)nc4C(F)(F)F)C3)c2c1Cl [700,805]		

MIC Spn52 [1, 3]	MIC, SA ([2]; S. aureus (SA), in µg/mL)	SMILES	MIC Spn52 ([1]; S. pneumoniae) [µg/mL]	MIC, SA ([2]; S. aureus) [µg/mL]
		CCOc1nc(Oc2cccnc2)nc2[nH]c(CC)c(Cl)c12.O=C(O)C(F)(F)F [700,665]	8	2
		CCc1[nH]c2nc(Sc3cc(=O)n(C)c(=O)[nH]3)nc(N3CC4CNC4C3)c2c1Cl.O=C(O)C(F)(F)F (stereo not shown) [700,628]	8	2
		CCOc1nc(Sc2cc(C(=O)O)ccn2)nc2[nH]c(CC)c(Cl)c12 [700,321]	64 (≈ 169 µM)	64 (≈ 169 µM)
		CCOc1nc(Nc2cnc3c(c2)c(=O)n(C)c(=O)n3C)nc2[nH]c(CC)c(Br)c12.O=C(O)C(F)(F)F [700,452]	> 64	> 64
		CCc1[nH]c2nc(Sc3cnc4cccnc4n3)nc(N3CC(O)C3)c2c1Br [700,346]	≤ 0.5	≤ 0.5
		CCc1[nH]c2nc(Sc3ccc4c(NCC(C)O)ncnc4c3)nc(N3CCC(N)C3)c2c1Cl (stereo not shown) [700,575]	16 (≈ 32.1 µM)	8 (≈ 16 µM)
		CCc1[nH]c2nc(Sc3cnc4nccnc4c3)nc(N3CC4C(C3)C4NC(=N)N)c2c1Cl (stereo not shown) [700,658]	8 (≈ 16.6 µM)	≤ 0.5
		CCc1[nH]c2nc(Sc3cnc4nccnc4c3)nc(N3CC(NS(C)(=O)=O)C3)c2c1Br [700,470]	1 (≈ 1.87 µM)	≤ 0.5
>64	>64	CCc1[nH]c2nc(Sc3cncc(O)c3)nc(N3CC[C@@H](N)C3)c2c1Cl [700,821]		
		CCc1[nH]c2nc(Sc3cnc4nccnc4c3)nc(N3CC(NC(=O)C4CC4)C3)c2c1Cl [700,440]	≤ 0.5	≤ 0.5
		CCc1[nH]c2nc(Sc3cnc4nccnc4c3)nc(N3CC(CNC(=O)[C@@H]4CCC(=O)N4)C3)c2c1Cl [700,520]	16 (≈ 29.7 µM)	8 (≈ 14.9 µM)
		C=CCc1nc(Cc2cccnc2)nc2[nH]c(CC)c(Cl)c12 [700,584]	32 (≈ 102 µM)	8 (≈ 25.6 µM)
		CCc1[nH]c2nc(Sc3cnc4nccnc4c3)nc(N3CC4CNCC43)c2c1Cl.O=C(O)C(F)(F)F (stereo not shown) [700,566]	64	> 64
		CCOC(=O)Cc1nc(N)c2ncc(Sc3nc(N4CC(O)C4)c4c(Cl)c(CC)[nH]c4n3)cc2n1.O=C(O)C(F)(F)F.O=C(O)C(F)(F)F [700,473]	64	32
4	2	CCc1[nH]c2nc(Sc3cnc4cccnc4c3)nc(N3C[C@H](C4CCCCC4)[C@@H](N)C3)c2c1Cl [700,890]		
		CCc1[nH]c2nc(Sc3cnc(N4CC(O)C4)c(C#N)c3)nc(N3CCC(N)C3)c2c1Cl (stereo not shown) [700,590]	16 (≈ 34 µM)	4 (≈ 8.49 µM)
		CCc1[nH]c2nc(Sc3cnc4nccnc4c3)nc(N3CC(N4CCCC4)C3)c2c1Cl.O=C(O)C(F)(F)F.O=C(O)C(F)(F)F [700,604]	8	4
		CCc1[nH]c2nc(Sc3cnc4nccnc4c3)nc(N3CC4CCCNC4C3)c2c1Cl.O=C(O)C(F)(F)F (stereo not shown) [700,721]	32	32
		CCc1[nH]c2nc(Sc3cnc4nccnc4c3)nc(N3CC[C@H](NC)C3)c2c1Cl.O=C(O)C(F)(F)F [700,549]	4	4
		CCc1[nH]c2nc(Oc3ccc(OC)nc3)nc(Oc3ccc(OC)nc3)c2c1Cl.O=C(O)C(F)(F)F [700,592]	4	> 64

SMILES	MIC Spn52 [1, 3]	MIC, SA ([2]; S. aureus (SA), in µg/mL)	MIC Spn52 ([1]; S. pneumoniae) [µg/mL]	MIC, SA ([2]; S. aureus) [µg/mL]
CCc1[nH]c2nc(Sc3cnc4c(c3)ncc(=O)n4C3CCNCC3)nc(N3CC[C@@H](N)C3)c2c1Cl [700,799]	>64	>64		
CCc1[nH]c2nc(Oc3cncnc3)nc(Oc3cncc(C#N)c3)c2c1Cl [700,898]	2	<=0.5		
